Measurements published in publication PMC10178848, “Modulating fast skeletal muscle contraction protects skeletal muscle in animal models of Duchenne muscular dystrophy” (The Journal of Clinical Investigation, 2023).
Where two headings read alike, the source gives them in different places.

System: GRMD plasma proteins
Format: in vivo, dog
[1] = Post-Treatment to GRMD baseline, Decreased in GRMD

**Q.** What does the source list for `O=c1ccc(-c2cnc(OCC(F)(F)F)nc2)nn1Cc1cncc(F)c1` [EDG-5506]?
**A.** Change from GRMD Baseline (fraction) (Human Chorionic Gonadotropin (CGA CGB), Post-Treatment to GRMD baseline): 2.5964 fraction; Change from GRMD Baseline (fraction) (Insulin (INS), EDG-5506 treatment to GRMD baseline): 0.2426 fraction; Change from GRMD Baseline (fraction) (Insulin (INS), Post-Treatment to GRMD baseline): 0.0736 fraction; Change from GRMD Baseline (fraction) (Interferon lambda-2 (IFNL2), EDG-5506 treatment to GRMD baseline): 0.1683 fraction; Change from GRMD Baseline (fraction) (Interferon lambda-2 (IFNL2), Post-Treatment to GRMD baseline): 0.4121 fraction; Change from GRMD Baseline (fraction) (Interleukin-12 (IL12A IL12B), EDG-5506 treatment to GRMD baseline): 0.1563 fraction; Change from GRMD Baseline (fraction) (Interleukin-12 (IL12A IL12B), Post-Treatment to GRMD baseline): 0.0477 fraction; Change from GRMD Baseline (fraction) (Leucine-rich repeat transmembrane protein FLRT2 (FLRT2), EDG-5506 treatment to GRMD baseline): 0.1078 fraction; Change from GRMD Baseline (fraction) (Leucine-rich repeat transmembrane protein FLRT2 (FLRT2), Post-Treatment to GRMD baseline): -0.1244 fraction; Change from GRMD Baseline (fraction) (Megakaryocyte-associated tyrosine-protein kinase (MATK), EDG-5506 treatment to GRMD baseline): 0.083 fraction; Change from GRMD Baseline (fraction) (Megakaryocyte-associated tyrosine-protein kinase (MATK), Post-Treatment to GRMD baseline): 0.0043 fraction; Change from GRMD Baseline (fraction) (Mitogen-activated protein kinase 9 (MAPK9), EDG-5506 treatment to GRMD baseline): 0.1873 fraction; Change from GRMD Baseline (fraction) (Mitogen-activated protein kinase 9 (MAPK9), Post-Treatment to GRMD baseline): -0.0197 fraction; Change from GRMD Baseline (fraction) (Myc proto-oncogene protein (MYC), EDG-5506 treatment to GRMD baseline): 0.0043 fraction; Change from GRMD Baseline (fraction) (Myc proto-oncogene protein (MYC), Post-Treatment to GRMD baseline): 0.0245 fraction; Change from GRMD Baseline (fraction) (Nascent polypeptide-associated complex subunit alpha (NACA), EDG-5506 treatment to GRMD baseline): -0.0939 fraction; Change from GRMD Baseline (fraction) (Nascent polypeptide-associated complex subunit alpha (NACA), Post-Treatment to GRMD baseline): -0.019 fraction; Change from GRMD Baseline (fraction) (Neurexin-1-beta (NRXN1), EDG-5506 treatment to GRMD baseline): 0.163 fraction; Change from GRMD Baseline (fraction) (Neurexin-1-beta (NRXN1), Post-Treatment to GRMD baseline): 0.0798 fraction; Change from GRMD Baseline (fraction) (Neuropilin-1 (NRP1), EDG-5506 treatment to GRMD baseline): -0.1066 fraction; Change from GRMD Baseline (fraction) (Neuropilin-1 (NRP1), Post-Treatment to GRMD baseline): -0.2144 fraction; Change from GRMD Baseline (fraction) (Neutrophil elastase (ELANE), EDG-5506 treatment to GRMD baseline): 0.113 fraction; Change from GRMD Baseline (fraction) (Neutrophil elastase (ELANE), Post-Treatment to GRMD baseline): 0.0205 fraction; Change from GRMD Baseline (fraction) (Neutrophil-activating peptide 2 (PPBP), EDG-5506 treatment to GRMD baseline): -0.0999 fraction; Change from GRMD Baseline (fraction) (Neutrophil-activating peptide 2 (PPBP), Post-Treatment to GRMD baseline): 0.0464 fraction; Change from GRMD Baseline (fraction) (Osteocalcin (BGLAP), EDG-5506 treatment to GRMD baseline): 0.2208 fraction; Change from GRMD Baseline (fraction) (Osteocalcin (BGLAP), Post-Treatment to GRMD baseline): -0.0043 fraction; Change from GRMD Baseline (fraction) (PILR alpha-associated neural protein (PIANP), EDG-5506 treatment to GRMD baseline): 0.0458 fraction; Change from GRMD Baseline (fraction) (PILR alpha-associated neural protein (PIANP), Post-Treatment to GRMD baseline): -0.0155 fraction; Change from GRMD Baseline (fraction) (Periostin (POSTN), EDG-5506 treatment to GRMD baseline): 0.1077 fraction; Change from GRMD Baseline (fraction) (Periostin (POSTN), Post-Treatment to GRMD baseline): -0.1102 fraction; Change from GRMD Baseline (fraction) (Pleiotrophin (PTN), EDG-5506 treatment to GRMD baseline): 0.0122 fraction; Change from GRMD Baseline (fraction) (Pleiotrophin (PTN), Post-Treatment to GRMD baseline): -0.0998 fraction; 3-hydroxyisobutyrate dehydrogenase, mitochondrial (HIBADH): Change from GRMD Baseline (fraction) [1]: 0.0399 fraction; 14-3-3 protein beta/alpha (YWHAB): Change from GRMD Baseline (fraction) [1]: -0.1281 fraction; 14-3-3 protein sigma (SFN): Change from GRMD Baseline (fraction) [1]: -0.1134 fraction; 72 kDa type IV collagenase (MMP2): Change from GRMD Baseline (fraction) [1]: -0.3542 fraction; Adrenomedullin (ADM): Change from GRMD Baseline (fraction) [1]: -0.0931 fraction; Aggrecan core protein (ACAN): Change from GRMD Baseline (fraction) [1]: -0.1233 fraction; Alpha-synuclein (SNCA): Change from GRMD Baseline (fraction) [1]: -0.0439 fraction; Apolipoprotein B (APOB): Change from GRMD Baseline (fraction) [1]: -0.0228 fraction; Appetite-regulating hormone (GHRL): Change from GRMD Baseline (fraction) [1]: 0.0233 fraction; Atrial natriuretic factor (NPPA): Change from GRMD Baseline (fraction) [1]: 0.0027 fraction; BDNF/NT-3 growth factors receptor (NTRK2): Change from GRMD Baseline (fraction) [1]: -0.0065 fraction; BH3-interacting domain death agonist (BID): Change from GRMD Baseline (fraction) [1]: 0.0184 fraction; Bcl-2-related protein A1 (BCL2A1): Change from GRMD Baseline (fraction) [1]: 0.0661 fraction; Bone morphogenetic protein 6 (BMP6): Change from GRMD Baseline (fraction) [1]: -0.0925 fraction; Bone morphogenetic protein 10 (BMP10): Change from GRMD Baseline (fraction) [1]: -0.0513 fraction; C-X-C motif chemokine 10 (CXCL10): Change from GRMD Baseline (fraction) [1]: 0.0358 fraction; C-type mannose receptor 2 (MRC2): Change from GRMD Baseline (fraction) [1]: -0.1031 fraction; CD166 antigen (ALCAM): Change from GRMD Baseline (fraction) [1]: 0.0066 fraction; Cadherin-5 (CDH5): Change from GRMD Baseline (fraction) [1]: -0.1425 fraction; Carboxypeptidase E (CPE): Change from GRMD Baseline (fraction) [1]: 0.0109 fraction; Cell adhesion molecule 1 (CADM1): Change from GRMD Baseline (fraction) [1]: -0.1579 fraction; Chromogranin-A (CHGA): Change from GRMD Baseline (fraction) [1]: 0.0248 fraction; Ciliary neurotrophic factor receptor subunit alpha (CNTFR): Change from GRMD Baseline (fraction) [1]: -0.0624 fraction; Ck-beta-8-1 (CCL23): Change from GRMD Baseline (fraction) [1]: 0.0454 fraction; Coiled-coil domain-containing protein 80 (CCDC80): Change from GRMD Baseline (fraction) [1]: 0.0372 fraction; Collagen alpha-1(VIII) chain (COL8A1): Change from GRMD Baseline (fraction) [1]: 0.1221 fraction; Collagenase 3 (MMP13): Change from GRMD Baseline (fraction) [1]: -0.3148 fraction; Collectin-12 (COLEC12): Change from GRMD Baseline (fraction) [1]: -0.0046 fraction; Complement component C1q receptor (CD93): Change from GRMD Baseline (fraction) [1]: -0.1418 fraction; Complement decay-accelerating factor (CD55): Change from GRMD Baseline (fraction) [1]: 0.0605 fraction; Contactin-1 (CNTN1): Change from GRMD Baseline (fraction) [1]: -0.0113 fraction; Corticotropin (POMC): Change from GRMD Baseline (fraction) [1]: 0.0912 fraction; Cytotoxic and regulatory T-cell molecule (CRTAM): Change from GRMD Baseline (fraction) [1]: 0.2824 fraction; Dickkopf-related protein 1 (DKK1): Change from GRMD Baseline (fraction) [1]: -0.0925 fraction; Dickkopf-related protein 4 (DKK4): Change from GRMD Baseline (fraction) [1]: -0.1272 fraction; E3 ubiquitin-protein ligase ZNRF3 (ZNRF3): Change from GRMD Baseline (fraction) [1]: 0.0469 fraction; Ephrin type-A receptor 5 (EPHA5): Change from GRMD Baseline (fraction) [1]: -0.1823 fraction; Ephrin-A2 (EFNA2): Change from GRMD Baseline (fraction) [1]: -0.0773 fraction; Ephrin-A5 (EFNA5): Change from GRMD Baseline (fraction) [1]: -0.1613 fraction; Epidermal growth factor receptor (EGFR): Change from GRMD Baseline (fraction) [1]: -0.0135 fraction; Estradiol 17-beta-dehydrogenase 1 (HSD17B1): Change from GRMD Baseline (fraction) [1]: 0.0729 fraction; Fatty acid-binding protein, epidermal (FABP5): Change from GRMD Baseline (fraction) [1]: 0.3761 fraction; Fc receptor-like protein 3 (FCRL3): Change from GRMD Baseline (fraction) [1]: -0.0287 fraction; GDNF family receptor alpha-2 (GFRA2): Change from GRMD Baseline (fraction) [1]: -0.0362 fraction; Galectin-8 (LGALS8): Change from GRMD Baseline (fraction) [1]: 0.1492 fraction; Galectin-9 (LGALS9): Change from GRMD Baseline (fraction) [1]: -0.0107 fraction; Gamma-enolase (ENO2): Change from GRMD Baseline (fraction) [1]: -0.0983 fraction; Gastrin-releasing peptide (GRP): Change from GRMD Baseline (fraction) [1]: 0.0411 fraction; Glutamate carboxypeptidase 2 (FOLH1): Change from GRMD Baseline (fraction) [1]: 0.145 fraction; Glypican-2 (GPC2): Change from GRMD Baseline (fraction) [1]: 0.075 fraction; Gremlin-1 (GREM1): Change from GRMD Baseline (fraction) [1]: 0.1318 fraction; Growth/differentiation factor 8 (MSTN): Change from GRMD Baseline (fraction) [1]: 0.065 fraction; Growth/differentiation factor 11/8 (GDF11 MSTN): Change from GRMD Baseline (fraction) [1]: -0.0539 fraction; Hemoglobin (HBA1 HBB): Change from GRMD Baseline (fraction) [1]: -0.0209 fraction; Heparin cofactor 2 (SERPIND1): Change from GRMD Baseline (fraction) [1]: 0.014 fraction; Hepatitis A virus cellular receptor 2 (HAVCR2): Change from GRMD Baseline (fraction) [1]: 0.0719 fraction; High affinity immunoglobulin gamma Fc receptor I (FCGR1A): Change from GRMD Baseline (fraction) [1]: 0.0477 fraction; Histone-lysine N-methyltransferase EHMT2 (EHMT2): Change from GRMD Baseline (fraction) [1]: -0.0469 fraction; Hyaluronan and proteoglycan link protein 1 (HAPLN1): Change from GRMD Baseline (fraction) [1]: -0.1275 fraction; Insulin-like growth factor 1 receptor (IGF1R): Change from GRMD Baseline (fraction) [1]: -0.1027 fraction; Integrin alpha-V: beta-5 complex (ITGAV ITGB5): Change from GRMD Baseline (fraction) [1]: 0.0267 fraction; Interleukin-4 receptor subunit alpha (IL4R): Change from GRMD Baseline (fraction) [1]: 0.0286 fraction; Interleukin-18-binding protein (IL18BP): Change from GRMD Baseline (fraction) [1]: -0.0841 fraction; Interstitial collagenase (MMP1): Change from GRMD Baseline (fraction) [1]: 0.1983 fraction; Leucine-rich repeat transmembrane neuronal protein 3 (LRRTM3): Change from GRMD Baseline (fraction) [1]: 0.0593 fraction; Limbic system-associated membrane protein (LSAMP): Change from GRMD Baseline (fraction) [1]: -0.0633 fraction; Lymphocyte activation gene 3 protein (LAG3): Change from GRMD Baseline (fraction) [1]: 0.8111 fraction; Lysosome membrane protein 2 (SCARB2): Change from GRMD Baseline (fraction) [1]: 0.1572 fraction; MHC class I polypeptide-related sequence B (MICB): Change from GRMD Baseline (fraction) [1]: 0.6204 fraction; Matrilin-2 (MATN2): Change from GRMD Baseline (fraction) [1]: -0.1616 fraction; Melanoma-derived growth regulatory protein (MIA): Change from GRMD Baseline (fraction) [1]: -0.1058 fraction; Moesin (MSN): Change from GRMD Baseline (fraction) [1]: 0.1568 fraction; Muellerian-inhibiting factor (AMH): Change from GRMD Baseline (fraction) [1]: 0.0468 fraction; NKG2D ligand 1 (ULBP1): Change from GRMD Baseline (fraction) [1]: -0.0033 fraction; NT-3 growth factor receptor (NTRK3): Change from GRMD Baseline (fraction) [1]: -0.1478 fraction; Netrin receptor UNC5C (UNC5C): Change from GRMD Baseline (fraction) [1]: -0.0587 fraction; Neurogenic locus notch homolog protein 2 (NOTCH2): Change from GRMD Baseline (fraction) [1]: 0.0095 fraction; Neurogenic locus notch homolog protein 3 (NOTCH3): Change from GRMD Baseline (fraction) [1]: -0.0751 fraction; Nuclear receptor subfamily 1 group D member 1 (NR1D1): Change from GRMD Baseline (fraction) [1]: 0.0266 fraction; Phospholipase A2 (PLA2G1B): Change from GRMD Baseline (fraction) [1]: -0.0833 fraction; Placenta growth factor (PGF): Change from GRMD Baseline (fraction) [1]: -0.1111 fraction; Plasminogen (PLG): Change from GRMD Baseline (fraction) [1]: 0.0803 fraction; PolyUbiquitin K63-linked (UBC): Change from GRMD Baseline (fraction) [1]: 0.2532 fraction; Proteasome activator complex subunit 3 (PSME3): Change from GRMD Baseline (fraction) [1]: 0.0489 fraction; Protein S100-A4 (S100A4): Change from GRMD Baseline (fraction) [1]: -0.1235 fraction; Protein amnionless (AMN): Change from GRMD Baseline (fraction) [1]: 0.002 fraction
